Patent US20160367708A1, “COMPOSITIONS AND METHODS OF TREATING CANCER” (THE JOHNS HOPKINS UNIVERSITY, priority 2013, published 2016)

Columns and labels:
[1] = test system: Syngeneic BALB/c CRL2836 tumors; assay: ^32P-mediated tumor growth inhibition in syngeneic BALB/c mice; format: in vivo, mouse; details: for inhibition of established syngeneic tumor growth: single IV injection of 5 μCi ten days after tumor cell injection
Excerpt: FIG. 5. Inhibition of BALB/c syngeneic tumor growth by [^32P]PO4. Syngeneic BALB/c CRL2836 tumors were established in the rear flanks of BALB/c mice at Day 0. After ten days during which the tumors became well vascularized, mice received an injection of 5 μCi of [^32P]PO4 intra-venously via the tail vein. The tumor volumes are shown as the mean of six tumors plus/minus the standard error of the mean. The student's two-sided t-test determined the P value shown.
Establishment of mouse tumors. Syngeneic BALB/c mouse tumors were established by injecting 2×10^6 BALB/c tumor CRL2836 cells ([…], Manassas, Va.) in a volume of 0.2 mL (50% Matrigel, 50% 1×PBS) subcutaneously in the left rear and right rear flank. All mice were female, 10 weeks of age, and purchased from Charles River Laboratories (Wilmington, Mass.).
^32P-Mediated tumor growth inhibition. After ten days, during which time well-vascularized tumors were established, an injection of 5 μCi of the monophosphate form of ^32P (Perkin-Elmer, Cat. # NEX06000) was injected intravenously via the tail vein in 0.1 mL of 1×HBSS. Six tumors (three animals) were studied in each group. After injection, tumor growth was measured three times per week with a digital caliper and the volume was determined using the formula: volume=½(width)^2×(length).
Statistical analysis. The data from the WST-1 cell proliferation are presented as means±standard deviation and the significance was determined using the unpaired Student's t test. The tumor volumes of the untreated and treated mice are shown as means±SE and no outliers were excluded for any reason. The significance was determined using the unpaired Student's t test.

HeLa cell xenografts = details: applicants' earlier work, cited from earlier work; for inhibition of xenograft tumor growth: nude mice, single low-dose IV injection
[2] = test system: BALB/c tumor CRL2836 cells; assay: WST-1 cell proliferation assay, [^32P]PO4 versus ^90Y; format: cell-based, mouse
Procedure: (§1) FIG. 2. Inhibition of cell growth by [^32P]PO4 or [^90Y]. The WST-1 proliferation assay was done to determine the level of cell kill by ^32P or by ^90Y. BALB/c tumor CRL2836 cells or HeLa cells were exposed to 0 Ci, 1 μCi, 2.5 μCi, or 5 μCi in complete medium. After 24 hours, the radioactivity was removed and cells were grown in non-radioactive complete medium. WST-1 cell proliferation assays were done at Days 1, 2, 3, 4, and 5 and all assays were done in triplicate. The mean is shown plus/minus the standard deviation. The student's two-sided t-test determined the P value shown.
(§2) Measurement of in vitro cell killing by ^32P and ^90Y. Two thousand cells of the mouse BALB/c CRL2836 cell line or the human HeLa cell line were grown in complete medium in a 96-well plate and at Day 0 were exposed to either 0, 1, 2.5, or 5 μCi of ^90Y radioisotope or the [^32P]PO4 radioisotope in complete medium. After a 24 h incubation, the radioisotope-containing medium was removed and replaced with non-radioactive complete medium (Day 1). […]
(§3) Statistical analysis. The data from the WST-1 cell proliferation are presented as means±standard deviation and the significance was determined using the unpaired Student's t test. […] The significance was determined using the unpaired Student's t test.

HeLa cells [3] = assay: as above; format: cell-based, human
Procedure: as §1, §2, §3

HeLa cells [4] = assay: H2AX immunostain assay of double-strand DNA breaks, ^32P versus ^90Y; format: cell-based, human; details: 3 μCi for 24 h, Day 1, 2 or 3
Procedure: FIG. 4. Determination of double-strand DNA breaks in cells caused by exposure to [^32P]PO4 or ^90Y. HeLa cells or mouse BALB/c CRL2836 cells were grown in multiple sections of chamber slides and exposed to 0 μCi or 3 μCi of [^32P]PO4 or ^90Y in complete medium at Day 0. After 24 hours, the radioactivity was removed and cells were grown in non-radioactive complete medium. At Day 1, 2, or 3 the presence of double-strand DNA breaks in the cells was determined by staining for phosphorylated H2-AX histones which indicate double-strand DNA damage.
Assessment of Double-Strand DNA Breaks by ^32P and ^90Y. Ten thousand HeLa cells were seeded in Lab-TekII chamber slides (Thermo Fisher Scientific Inc., Waltham, Mass.). At Day 0 cells were treated with 0 or 3 μCi of ^32P or ^90Y in complete medium. At Day 1, all wells were gently washed and fresh non-radioactive medium was added. At Day 1, Day 2, or Day 3, cells were fixed with 10% formalin at room temperature for 10 min, washed with PBS for two min, and permeabilized with 0.2% Triton X-100 with 10% FBS in PBS for 15 min. After a rinse with PBS, primary mouse anti-human H2AX antibody with 1:1000 dilution (Millipore, Billerica, Mass.) was incubated for 1 h at ambient temperature, and washed twice with PBS for 5 min. […]

[5] = test system: mouse BALB/c CRL2836 cell line or the human HeLa cell line; assay: WST-1 cell proliferation assay, ^32P taken up from the medium versus ^32P held in tubes (electron bombardment only); format: cell-based; details: isotope added directly to the medium for 1 day, compared with isotope kept in tubes in the wells; followed up to six days
Procedure: FIG. 1. A cell proliferation assay using WST-1 was performed to assess the relative cell killing ability of ^32Pmonophosphate that is taken up by cells into the DNA versus that which is not taken up by the cells, but subjected only to electron bombardment.
Measurement of In Vitro Cell Killing by ^32P Radioisotope. Two thousand cells of the mouse BALB/c CRL2836 cell line or the human HeLa cell line were growing in complete medium in wells of a 96-well plate and were exposed to either 0 uCi, 3 uCi or 10 uCi of the [^32P]pyrophosphate or the [^32P]monophosphate radioisotopes. One set of triplicate wells contained medium with the designated form of the isotope, while another set of triplicate wells had the isotope contained in small tubes placed in the wells. […] After a 24 hour exposure time, fresh non-radioactive medium was added and WST-1 proliferation assays were done at several subsequent time points.
To assess the relative cell killing ability of [^32P]monophosphate that is taken up by cells into the DNA versus that of is not taken up by the cells, but subjected only to electron bombardment, a cell proliferation assay using WST-1 was undertaken (FIG. 1). […]

[6] = 24 h exposure to identical amounts of isotope

Compound	effects on the health of the mice (weight gain, overall activity levels) ([1]; single IV injection of 5 μCi)	inhibition of established syngeneic tumor growth [1]	inhibition of established syngeneic tumor growth ([1]; listed as 32P)	inhibition of xenograft tumor growth (HeLa cell xenografts)	detrimental effects (weight gain, general activity, overall health) (HeLa cell xenografts; xenografted nude mice)	survival rates at Day 5 relative to ^90Y ([2]; 2.5 μCi and 5 μCi doses, Day 5)	cell killing efficiency compared with ^90Y [2, 6]	survival rates at Day 5 relative to ^90Y (HeLa cells [3]; 2.5 μCi and 5 μCi doses, Day 5)	cell killing efficiency compared with ^90Y (HeLa cells [3]; [6])	double-strand DNA breakage (nuclear staining for phosphorylated H2AX) (HeLa cells [4])	cell death as monitored by the lack of cell growth [5]
O=[32P](O)(O)O [[^32P]PO4, ^32P monophosphate]	no apparent detrimental effects	significantly inhibited	strongly and effectively inhibited tumor growth	strongly and effectively inhibited tumor growth	no apparent detrimental effects	barely half of those produced by ^90Y	killed cells more efficiently than did ^90Y	barely half of those produced by ^90Y	killed cells more efficiently than did ^90Y	significant, time-dependent double-strand DNA breakage	far greater levels of cell death
[^32P]ATP	–	–	–	significant inhibition	–	–	–	–	–	–	–
